Measured values reported in US20230263822A1, “MODULATION OF FACTOR 11 EXPRESSION” (Ionis Pharmaceuticals, Inc., priority 2008, published 2023).
Strand notation (5' to 3'): a small letter for the sugar, then the base; units joined by * are phosphorothioate-linked, units joined directly phosphodiester-linked; [ ] holds rarer units or linkages, { } end groups; capitals alone tell only the bases. e = 2'-O-(2-methoxyethyl) (MOE); [5mC] = 5-methylcytosine; d = 2'-deoxy (DNA)

Assays:
human Factor 11 mRNA = test: Dose-dependent inhibition of human Factor 11 in HepG2 cells, electroporation 375-12,000 nM (Example 32); type: cell-based; details: for Percent inhibition of Factor 11 mRNA at 375 nM / Percent inhibition of Factor 11 mRNA at 750 nM / IC50: electroporation; for Percent inhibition of Factor 11 mRNA at 375 nM / Percent inhibition of Factor 11 mRNA at 750 nM / Percent inhibition of Factor 11 mRNA at 1,500 nM / Percent inhibition of Factor 11 mRNA at 3,000 nM / Percent inhibition of Factor 11 mRNA at 6,000 nM / Percent inhibition of Factor 11 mRNA at 12,000 nM: approx. 16 hours, relative to untreated control cells; for Percent inhibition of Factor 11 mRNA at 1,500 nM: electroporation, 1,500 nM; for Percent inhibition of Factor 11 mRNA at 3,000 nM: electroporation, 3,000 nM; for Percent inhibition of Factor 11 mRNA at 6,000 nM: electroporation, 6,000 nM; for Percent inhibition of Factor 11 mRNA at 12,000 nM: electroporation, 12,000 nM; for IC50: Factor 11 mRNA expression
Experimental: These gapmers were tested at various doses in HepG2 cells. Cells were plated at a density of 20,000 cells per well and transfected using electroporation with 375 nM, 750 nM, 1,500 nM, 3,000 nM, 6,000 nM and 12,000 nM concentrations of antisense oligonucleotide, as specified in Table 47. After a treatment period of approximately 16 hours, RNA was isolated from the cells and Factor 11 mRNA levels were measured by quantitative real-time PCR. Human Factor 11 primer probe set RTS 2966 was used to measure mRNA levels. Factor 11 mRNA levels were adjusted according to total RNA content, as measured by RIBOGREEN. Results are presented as percent inhibition of Factor 11, relative to untreated control cells.
ISIS 416850, ISIS 416858, ISIS 445522, and ISIS 445531 (see Table 45 above) were re-tested in vitro along with the microwalk gapmers under the same conditions described above.
The first two listed gapmers in Table 47 are the original gapmers (ISIS 416850 and ISIS 416858) from which the remaining gapmers were designed via microwalk and are designated by an asterisk.

Factor 11 mRNA = Factor 11 mRNA in cynomolgus monkey liver, day 55 (Example 46); type: in vivo, cynomolgus monkeys; details: 25 mg/kg subcutaneously, primer probe set LTS00301
Experimental: (§1) Groups, each consisting of two male and two female monkeys, were injected subcutaneously with 25 mg/kg of ISIS 416850, ISIS 449709, ISIS 445522, ISIS 449710, ISIS 449707, ISIS 449711, ISIS 449708, 416858, and ISIS 445531. Antisense oligonucleotide was administered to the monkeys at 25 mg/kg three times per week for week 1 and 25 mg/kg twice per week for weeks 2 to 8. A control group, consisting of two male and two female monkeys was injected subcutaneously with PBS according to the same dosing regimen. Body weights were taken 14 days and 7 days before the start of treatment and were then measured weekly throughout the treatment period. Blood samples were collected 14 days and 5 days before the start of treatment and subsequently several times during the dosing regimen for PT and aPTT measurements, and measurement of various hematologic factors. On day 55, the monkeys were euthanized by exsanguination while under deep anesthesia, and organs harvested for further analysis.
On day 55, RNA was extracted from liver tissue for real-time PCR analysis of Factor 11 using primer probe set LTS00301. Results are presented as percent inhibition of Factor 11, relative to PBS control.

[1] = Viscosity of ISIS antisense oligonucleotides, micro-viscometer at 25 °C (Example 47); type: physicochemical; details: for Concentration: concentration of the viscosity sample, UV reading at 260 nM at 85° C.; for Viscosity: in water, micro-viscometer at 25° C., at the concentration of the same line
Experimental: The viscosity of antisense oligonucleotides targeting human Factor 11 was measured with the aim of screening out antisense oligonucleotides which have a viscosity more than 40 cP at a concentration of 165-185 mg/mL.
ISIS oligonucleotides (32-35 mg) were weighed into a glass vial, 120 μL of water was added and the antisense oligonucleotide was dissolved into solution by heating the vial at 50° C. Part of (75 μL) the pre-heated sample was pipetted to a micro-viscometer (Cambridge). The temperature of the micro-viscometter was set to 25° C. and the viscosity of the sample was measured. Another part (20 μL) of the pre-heated sample was pipetted into 10 mL of water for UV reading at 260 nM at 85° C. (Cary UV instrument).

Factor 11 protein = Factor 11 protein in monkey plasma by sandwich ELISA (Example 46); type: in vivo, cynomolgus monkeys; details: 25 mg/kg subcutaneously
Experimental: as §1
Plasma samples from all monkey groups taken on different days were analyzed by a sandwich-style ELISA assay (Affinity Biologicals Inc.) using an affinity-purified polyclonal anti-Factor 11 antibody as the capture antibody and a peroxidase-conjugated polyclonal anti-Factor 11 antibody as the detecting antibody. Monkey plasma was diluted 1:50 for the assay. Peroxidase activity was expressed by incubation with the substrate o-phenylenediamine. The color produced was quantified using a microplate reader at 490 nm and was considered to be proportional to the concentration of Factor 11 in the samples.
The results are presented in Table 147, expressed as percentage reduction relative to that of the PBS control.

Substance	Percent inhibition of Factor 11 mRNA at 375 nM (human Factor 11 mRNA) [%]	Percent inhibition of Factor 11 mRNA at 750 nM (human Factor 11 mRNA) [%]	Percent inhibition of Factor 11 mRNA at 1,500 nM (human Factor 11 mRNA) [%]	Percent inhibition of Factor 11 mRNA at 3,000 nM (human Factor 11 mRNA) [%]	Percent inhibition of Factor 11 mRNA at 6,000 nM (human Factor 11 mRNA) [%]	Percent inhibition of Factor 11 mRNA at 12,000 nM (human Factor 11 mRNA) [%]	IC50 (human Factor 11 mRNA) [µM]	% inhibition of Factor 11 mRNA in liver relative to the PBS control (Factor 11 mRNA) [%]	Concentration [1] [mg/mL]	Viscosity [1] [cP]	Inhibition of Factor 11 protein relative to the PBS control (percentage reduction) (Factor 11 protein; Day 10, plasma) [%]	Inhibition of Factor 11 protein relative to the PBS control (percentage reduction) (Factor 11 protein; Day 17, plasma) [%]	Inhibition of Factor 11 protein relative to the PBS control (percentage reduction) (Factor 11 protein; Day 24, plasma) [%]	Inhibition of Factor 11 protein relative to the PBS control (percentage reduction) (Factor 11 protein; Day 31, plasma) [%]	Inhibition of Factor 11 protein relative to the PBS control (percentage reduction) (Factor 11 protein; Day 38, plasma) [%]	Inhibition of Factor 11 protein relative to the PBS control (percentage reduction) (Factor 11 protein; Day 45, plasma) [%]	Inhibition of Factor 11 protein relative to the PBS control (percentage reduction) (Factor 11 protein; Day 52, plasma) [%]	Inhibition of Factor 11 protein relative to the PBS control (percentage reduction) (Factor 11 protein; Day 55, plasma) [%]	Inhibition of Factor 11 protein relative to the PBS control (percentage reduction) (Factor 11 protein; Day −5, plasma) [%]	Inhibition of Factor 11 protein relative to the PBS control (percentage reduction) (Factor 11 protein; Day −14, plasma) [%]
449707 (antisense e[5mC]*eA*e[5mC]*eA*dG*dT*dT*dT*d[5mC]*dT*dG*dG*e[5mC]*eA*eG*eG) [compound 449707]	7	35	63	73	85	91	1.26	47	166	7	16	19	21	29	28	35	29	32	0	0
449711 (antisense eA*e[5mC]*dA*dG*dT*dT*dT*d[5mC]*dT*dG*dG*d[5mC]*eA*eG) [compound 449711]	6	14	1	7	32	52	11	0	209	6	5	3	6	9	2	4	3	5	1	0
